Experimental data as given in patent US8288421B2, “Phenylaminopyridines” (Basilea Pharmaceutica AG, priority 2004, dated 2012).

Key:
[1] = tested on: DOHH2; test: Mitochondrial membrane potential (JC-1); format: cell-based; details: DOHH2, 48 h read-out
Protocol: (§1) This assay is performed in 96 well tissue culture plates. Appropriate number of cells (adherent cells: 3-5*10^3, suspension cells: 8-10*10^3) are being seeded out in 80 μl complete medium. Adherent cells are incubated for 24 h for proper spreading out before addition of test compounds while suspension cells are immediately treated with test compounds after seeding out. The test compounds are added in 20 μal complete medium containing max 5% DMSO. […] The assay plates are then further incubated for 30 minutes and subsequently analyzed with a standard inverted fluorescence microscope by using the FITC and TRITC filters.
(§2) The scores A, B, C and D are explained at the end of the Table.

[2] = tested on: MRC5; test: Hoechst 33342 nuclear staining; format: cell-based; details: MRC5, 48 h read-out
Protocol: as §1, with “μl” for “μal”, “DMSO. The final compound concentrations in the assays are in the range of 0.001 μM-10 μM.” for “DMSO.”, “microscope.” for “microscope by using the FITC and TRITC filters.”
(§3) The readout allows the determination of the fraction of apoptotic nuclei as well as other morphological criteria specific for apoptosis as a function of the treatment. The scores A, B, C and D are explained at the end of the Table.

[3] = tested on: Jily; test: Hoechst 33342 nuclear staining; format: cell-based; details: 48 h read-out
Protocol: as §1, with “μl” for “μal”, “DMSO. The final compound concentrations in the assays are in the range of 0.001 μM-10 μM.” for “DMSO.”, “microscope.” for “microscope by using the FITC and TRITC filters.”
as §3

[4] = tested on: HT1080; test: MTS proliferation assay; format: cell-based, human; details: HT1080, 72 h read-out
Protocol: (§4) The assay is performed in 96 well tissue culture plates. The cells (range: 1.5*10^3-10^4) are seeded out in 80 μl complete medium 24 h prior to compound treatment. The test compounds are added in 20 μl complete medium containing max 5% DMSO. The final compound concentrations in the assays are in the range of 0.001 μM-10 μM. The assay plates are incubated for 72 h at culture conditions. The MTS reagent is prepared according to the manufacturer's protocol (Promega G1111). 20 μl MTS reagent are added to each well, the assay plates are quickly spun and incubated for another 3 h at culture conditions. Subsequently, the plates are shortly shaked and absorption measured with a microplate-reader at 492 nm. The scores A, B, C and D are explained at the end of the Table.

[5] = tested on: Jurkat; test: MTS proliferation assay; format: cell-based, human; details: 72 h read-out
Protocol: as §4

[6] = tested on: HeLa; test: MTS proliferation assay; format: cell-based, human; details: 72 h read-out
Protocol: as §4

[7] = tested on: Jurkat; test: Mitochondrial membrane potential (JC-1); format: cell-based, human; details: 48 h read-out
Protocol: as §1, §2

[8] = tested on: PBL; test: Mitochondrial membrane potential (JC-1); format: cell-based, human; details: 48 h read-out
Protocol: as §1, §2

[9] = tested on: MCF7; test: Mitochondrial membrane potential (JC-1); format: cell-based, human; details: MCF7, 48 h read-out
Protocol: as §1, §2

[10] = tested on: HeLa; test: Mitochondrial membrane potential (JC-1); format: cell-based, human; details: 48 h read-out
Protocol: as §1, §2

[11] = tested on: HeLa; test: PI staining for cell cycle distribution; format: cell-based, human; details: 24 h read-out, read-out: PI staining for cell cycle distribution EC50 (G2M arrest), HeLa
Protocol: 1-2*10^5 cells are seeded into 24 well tissue culture plates and incubated for 24 h prior to compound addition. Compounds are added for 24 h in a final concentration of 3 μM or 10 μM. Adherent cells are harvested by trypsinization. The cell suspensions are fixed by adding 2 parts ice cold ethanol 100% while vortexing. Then the samples are stored for >2 h at −20° C. Subsequently the cells are washed with PBS once and resuspended in 250 μl PBS containing 50 μg/ml PI (Calbiochem #537059), then the samples are incubated at 37° C. for 30 minutes and subsequently analyzed on a FACSCalibur™ monitoring linear PI fluorescence activity on FL2. The readout allows the detection of a possible direct or indirect influence of the tested compounds on the cell cycle. All active test compounds induce an arrest of the cell population in the G2M phase. This effect has been quantified by running the test at different concentrations. In Table 4 EC50 values are tabulated.

[12] = tested on: MRC5; test: MTS proliferation assay; format: cell-based; details: MRC5, 72 h read-out
Protocol: as §4

[13] = tested on: Jily; test: MTS proliferation assay; format: cell-based; details: 72 h read-out
Protocol: as §4

[14] = tested on: Jurkat; test: Hoechst 33342 nuclear staining; format: cell-based, human; details: 48 h read-out
Protocol: as §1, with “μl” for “μal”, “DMSO. The final compound concentrations in the assays are in the range of 0.001 μM-10 μM.” for “DMSO.”, “microscope.” for “microscope by using the FITC and TRITC filters.”
as §3

[15] = tested on: PBL; test: Hoechst 33342 nuclear staining; format: cell-based, human; details: 48 h read-out
Protocol: as §1, with “μl” for “μal”, “DMSO. The final compound concentrations in the assays are in the range of 0.001 μM-10 μM.” for “DMSO.”, “microscope.” for “microscope by using the FITC and TRITC filters.”
as §3

[16] = tested on: HeLa; test: Hoechst 33342 nuclear staining; format: cell-based, human; details: 48 h read-out
Protocol: as §1, with “μl” for “μal”, “DMSO. The final compound concentrations in the assays are in the range of 0.001 μM-10 μM.” for “DMSO.”, “microscope.” for “microscope by using the FITC and TRITC filters.”
as §3

| Compound | EC50 ([1]; Homo sapiens, DOHH-2) [nM] | EC50 [3] [nM] | IC50 ([4]; Homo sapiens, HT-1080) [nM] | IC50 ([5]; Homo sapiens) [nM] | EC50 [1] [nM] | IC50 [4] [nM] | IC50 [5] [nM] | IC50 [6] [nM] | EC50 [7] [nM] | EC50 [8] [nM] | EC50 [9] [nM] | EC50 [10] [nM] | EC50 [11] [nM] | EC50 [14] [nM] | EC50 [15] [nM] | EC50 [16] [nM] | EC50 ([2]; Homo sapiens) [nM] | IC50 [13] [nM] | EC50 [2] [nM] | IC50 [12] [nM] | other results |
| --- | --- | --- | --- | --- | --- | --- | --- | --- | --- | --- | --- | --- | --- | --- | --- | --- | --- | --- | --- | --- | --- |
| COc1ccc(Nc2cncc(-c3cccc(NS(C)(=O)=O)c3)c2)cc1 [Example 1, 3-(m-Mesylaminophenyl)-5-(p-methoxyphenylamino)pyridine] | 100 to 1000 | 100 to 1000 | 100 to 1000 | 10 to 100 |  |  |  |  |  |  |  |  |  |  |  |  | 100 to 1000 | 10 to 100 |  |  | IC50 ([6]; Homo sapiens): 100 to 1000 nM; EC50 ([7]; Homo sapiens): 100 to 1000 nM; EC50 ([8]; Homo sapiens): > 1000 nM; EC50 ([9]; Homo sapiens): > 1000 nM; EC50 ([10]; Homo sapiens): 100 to 1000 nM; melting point: 240 °C; EC50 ([11]; Homo sapiens): 100 to 1000 nM; IC50 ([12]; Homo sapiens): 100 to 1000 nM; EC50 ([14]; Homo sapiens): 100 to 1000 nM; EC50 ([15]; Homo sapiens): > 1000 nM; EC50 ([16]; Homo sapiens): 100 to 1000 nM |
| COc1ccc(Nc2cncc(-c3cccc(NS(=O)(=O)CCCCl)c3)c2)cc1 [Example 7] |  | 10 to 100 |  |  | 10 to 100 | 100 to 1000 | 10 to 100 | 100 to 1000 | 10 to 100 | > 1000 | > 1000 | 100 to 1000 | 100 to 1000 | 10 to 100 | > 1000 | 10 to 100 |  | 10 to 100 | 10 to 100 | 100 to 1000 |  |
| COc1ccc(Nc2cncc(-c3cccc(NC(=O)c4cccnc4Cl)c3)c2)cc1 [Example 11] |  | 10 to 100 |  |  | 10 to 100 | 10 to 100 | 10 to 100 | 10 to 100 | 10 to 100 | > 1000 | > 1000 | 10 to 100 | < 10 | 10 to 100 | > 1000 | 10 to 100 |  | 10 to 100 | 10 to 100 | 10 to 100 |  |
| CCC(=O)Nc1cccc(-c2cncc(Nc3ccc(OC)cc3)c2)c1 [Example 21] |  | 100 to 1000 |  |  | 100 to 1000 | 100 to 1000 | 10 to 100 | 100 to 1000 | 100 to 1000 | > 1000 | > 1000 | 100 to 1000 |  | 100 to 1000 | > 1000 | 100 to 1000 |  | 100 to 1000 | > 1000 | 100 to 1000 |  |

The next lines start with results.

| EC50 ([1]; Homo sapiens, DOHH-2) [nM] | EC50 [3] [nM] | IC50 ([4]; Homo sapiens, HT-1080) [nM] | IC50 ([5]; Homo sapiens) [nM] | EC50 [1] [nM] | IC50 [4] [nM] | IC50 [5] [nM] | IC50 [6] [nM] | EC50 [7] [nM] | EC50 [8] [nM] | EC50 [9] [nM] | EC50 [10] [nM] | EC50 [11] [nM] | EC50 [14] [nM] | EC50 [15] [nM] | EC50 [16] [nM] | Compound | EC50 ([2]; Homo sapiens) [nM] | IC50 [13] [nM] | EC50 [2] [nM] | IC50 [12] [nM] | other results |
| --- | --- | --- | --- | --- | --- | --- | --- | --- | --- | --- | --- | --- | --- | --- | --- | --- | --- | --- | --- | --- | --- |
| 10 to 100 | 10 to 100 | 10 to 100 | 10 to 100 |  |  |  |  |  |  |  |  |  |  |  |  | COc1ccc(Nc2cncc(-c3cccc(Nc4ccccn4)c3)c2)cc1 [Example 3, 5-(p-Methoxyphenylamino)-3-(m-[2-pyridylamino]phenyl)pyridine] | 100 to 1000 | 10 to 100 |  |  | IC50 ([6]; Homo sapiens): 100 to 1000 nM; EC50 ([7]; Homo sapiens): 10 to 100 nM; EC50 ([8]; Homo sapiens): > 1000 nM; EC50 ([9]; Homo sapiens): 100 to 1000 nM; EC50 ([10]; Homo sapiens): 100 to 1000 nM; melting point: 161 to 165 °C; IC50 ([12]; Homo sapiens): 100 to 1000 nM; EC50 ([14]; Homo sapiens): 10 to 100 nM; EC50 ([15]; Homo sapiens): > 1000 nM; EC50 ([16]; Homo sapiens): 100 to 1000 nM |
|  | < 10 |  |  | < 10 | < 10 |  | 10 to 100 | < 10 | > 1000 | 100 to 1000 | 10 to 100 | 10 to 100 | < 10 | > 1000 | 10 to 100 | COc1ccc(Nc2cncc(-c3cccc(NC(=O)c4ccncc4)c3)c2)cc1 [Example 16] |  |  | < 10 | < 10 |  |
